Measured values as given in ChEMBL document CHEMBL5352398 (Eur J Med Chem, 2022).
pIC50: −log10 of the molar value. Active and inactive are the calls of the source. The calls are words filed in the database; no cut-off is given here.

Key:
[1] = target: T1, Solute carrier family 2, facilitated glucose transporter member 9 (Mus musculus) (UniProt Q3T9X0); assay: Inhibition of mouse GLUT9 transfected in human HEK293 cells assessed as inhibition of uric acid induced current at 10 uM by cell patch-clamp assay; assay type: cell-based
T1 sequence (whole entry): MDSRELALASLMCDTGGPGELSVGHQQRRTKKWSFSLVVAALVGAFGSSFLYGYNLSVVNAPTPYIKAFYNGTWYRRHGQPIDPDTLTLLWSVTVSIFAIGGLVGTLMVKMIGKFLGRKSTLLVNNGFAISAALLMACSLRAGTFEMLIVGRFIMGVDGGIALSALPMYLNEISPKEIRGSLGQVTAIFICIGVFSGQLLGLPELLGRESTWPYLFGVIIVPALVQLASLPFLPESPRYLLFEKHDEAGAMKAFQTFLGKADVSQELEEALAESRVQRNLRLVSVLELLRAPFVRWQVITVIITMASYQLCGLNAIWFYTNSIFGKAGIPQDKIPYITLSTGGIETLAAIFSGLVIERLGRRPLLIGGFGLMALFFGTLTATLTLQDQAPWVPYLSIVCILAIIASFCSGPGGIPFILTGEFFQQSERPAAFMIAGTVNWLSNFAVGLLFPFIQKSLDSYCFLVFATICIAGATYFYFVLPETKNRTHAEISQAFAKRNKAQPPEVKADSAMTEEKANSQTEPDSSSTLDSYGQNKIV

HepG2 [2] = assay: Cytotoxicity against human HepG2 cells assessed as reduction in cell viability at 100 uM incubated for 72 hrs by MTT assay; assay type: toxicity, cell-based; settings: hepg2, 72 h
[3] = target: T2, Solute carrier family 22 member 6 (Homo sapiens, UniProt Q4U2R8); assay: Inhibition of OAT1 (unknown origin) transfected in HEK293 cells assessed as inhibition of 6-CFL uptake preincubated for 30 mins followed by 6-CFL addition and measured for 15 mins by fluorescence based microplate reader analysis; assay type: cell-based
T2 sequence (Q4U2R8 whole entry): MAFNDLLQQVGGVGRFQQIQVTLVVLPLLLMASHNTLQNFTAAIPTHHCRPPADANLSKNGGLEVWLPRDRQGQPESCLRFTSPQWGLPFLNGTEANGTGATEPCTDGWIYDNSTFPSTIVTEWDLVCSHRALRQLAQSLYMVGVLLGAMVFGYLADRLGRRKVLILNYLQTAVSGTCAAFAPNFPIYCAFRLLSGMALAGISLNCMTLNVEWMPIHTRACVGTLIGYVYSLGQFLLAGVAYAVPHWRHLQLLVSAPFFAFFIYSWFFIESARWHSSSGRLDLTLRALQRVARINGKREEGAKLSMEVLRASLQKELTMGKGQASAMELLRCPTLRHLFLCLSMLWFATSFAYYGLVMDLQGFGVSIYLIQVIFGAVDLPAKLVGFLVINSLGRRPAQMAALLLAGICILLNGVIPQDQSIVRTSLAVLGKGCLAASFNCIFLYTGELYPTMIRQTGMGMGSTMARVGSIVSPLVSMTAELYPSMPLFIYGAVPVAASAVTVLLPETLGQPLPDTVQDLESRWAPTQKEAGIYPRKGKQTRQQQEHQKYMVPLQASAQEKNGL

[4] = target: T3, Broad substrate specificity ATP-binding cassette transporter ABCG2 (Homo sapiens, UniProt Q9UNQ0); assay: Inhibition of ABCG2 (unknown origin) transfected in HEK293 cell membrane vesicle assessed as inhibition of 14C-uric acid uptake incubated for 15 mins in presence of ATP by liquid scintillation counter analysis; assay type: cell membranes
T3 sequence (Q9UNQ0 whole entry): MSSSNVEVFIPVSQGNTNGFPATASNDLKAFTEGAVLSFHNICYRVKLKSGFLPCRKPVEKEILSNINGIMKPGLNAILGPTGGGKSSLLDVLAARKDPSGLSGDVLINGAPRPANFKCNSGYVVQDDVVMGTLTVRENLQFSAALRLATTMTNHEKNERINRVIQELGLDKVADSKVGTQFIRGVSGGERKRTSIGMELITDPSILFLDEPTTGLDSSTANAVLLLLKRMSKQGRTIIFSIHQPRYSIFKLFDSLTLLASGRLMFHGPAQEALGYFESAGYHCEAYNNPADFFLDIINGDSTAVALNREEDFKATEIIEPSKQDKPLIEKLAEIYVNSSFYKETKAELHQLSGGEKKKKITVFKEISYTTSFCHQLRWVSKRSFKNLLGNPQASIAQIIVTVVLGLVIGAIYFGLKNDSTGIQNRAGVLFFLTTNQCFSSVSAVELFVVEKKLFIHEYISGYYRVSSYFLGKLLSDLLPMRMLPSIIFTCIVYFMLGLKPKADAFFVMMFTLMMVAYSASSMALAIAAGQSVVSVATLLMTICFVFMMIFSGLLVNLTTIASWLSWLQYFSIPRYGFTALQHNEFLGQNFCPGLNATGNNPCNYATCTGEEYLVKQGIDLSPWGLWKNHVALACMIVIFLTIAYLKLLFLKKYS

[5] = Tmax in Sprague-Dawley rat at 5 mg/kg, po and measured upto 24 hrs by LC-MS/MS analysis; assay type: ADME, organism-based; settings: in vivo
[6] = Tmax in Sprague-Dawley rat at 5 mg/kg, iv and measured upto 24 hrs by LC-MS/MS analysis; assay type: ADME, organism-based; settings: in vivo
[7] = Cmax in Sprague-Dawley rat at 5 mg/kg, iv and measured upto 24 hrs by LC-MS/MS analysis; assay type: ADME, organism-based; set-up: time < 24 hrs, dose 5 mg/kg, route iv; settings: in vivo
[8] = Half life in Sprague-Dawley rat at 5 mg/kg, iv and measured upto 24 hrs by LC-MS/MS analysis; assay type: ADME, organism-based; settings: in vivo
[9] = AUC(0 to infinity) in Sprague-Dawley rat at 5 mg/kg, iv and measured upto 24 hrs by LC-MS/MS analysis; assay type: ADME, organism-based; set-up: dose 5 mg/kg, time < 24 hrs, route iv; settings: in vivo
[10] = Cytotoxicity against human HK-2 cells assessed as inhibition of cell growth at 400 uM incubated for 72 hrs by MTT assay relative to control; assay type: toxicity, cell-based
[11] = Subacute toxicity in Kunming mouse assessed as body weight change at 50 mg/kg,po for 14 days; assay type: organism-based; settings: in vivo, 336 h, time 14 day
[12] = Subacute toxicity in Kunming mouse assessed as clonic convulsion at 50 mg/kg,po for 14 days; assay type: organism-based; settings: in vivo, 336 h, time 14 day
[13] = Subacute toxicity in Kunming mouse assessed as anorexia at 50 mg/kg,po for 14 days; assay type: organism-based; settings: in vivo, 336 h, time 14 day
[14] = Hepatotoxicity in Kunming mouse assessed as increase in ALT level in serum at 50 mg/kg,po for 14 days in presence of BSO; assay type: toxicity, organism-based; settings: in vivo, 336 h, time 14 day
[15] = Hepatotoxicity in Kunming mouse assessed as reduction in GSH level in serum at 50 mg/kg, ip and incubated for 1 hr (reference value: 41.68 uM); assay type: toxicity, organism-based; settings: in vivo
[16] = Toxicity in Kunming mouse assessed as irregular cell arrangements at 50 mg/kg, po and measured after 14 days by HE staining based microscopy; assay type: organism-based; settings: in vivo, 336 h, time 14 day
[17] = Toxicity in Kunming mouse assessed as inflammatory infiltration in liver at 50 mg/kg, po administered and measured after 14 days by HE staining; assay type: organism-based; settings: in vivo, 336 h, time 14 day
Mus musculus = assay: Anti-hyperuricemic activity against potassium oxonate induced hyperuricemia in Kunming mouse model assessed as decrease in serum urate level at 2 mg/kg, po and measured after 3 hrs; assay type: functional, organism-based
HepG2 [18] = assay: Cytotoxicity against human HepG2 cells assessed as reduction in cell viability upto 400 uM incubated for 24 hrs by MTT assay; assay type: toxicity, cell-based; settings: hepg2, 24 h

CCc1oc2ccccc2c1C(=O)c1cc(Br)c(O)c(Br)c1 [BENZBROMARONE]
inhibition [1]: 26% | Activity (HepG2 [2]): Toxic | pIC50 [3]: 5.67 | pIC50 [4]: 6.47 | Tmax [5]: 37.8 min | Tmax [6]: 30 min | Cmax [7]: 14700 ng/mL | half-life [8]: 182 min | AUC(0-inf) [9]: 30700 ng·h/mL | inhibition at 72 h, 400 µM [10]: 40.1% | Activity [11]: Non-Toxic | Activity [12]: Non-Toxic | Activity [13]: Non-Toxic | Activity [14]: Non-Toxic | Activity [15]: 10.72 µM | Activity [16]: Non-Toxic | Activity [17]: Non-Toxic | Activity (Mus musculus): Active | Activity (HepG2 [18]): Toxic
